Data: patent US20090298897A1, “Treatment of Inflammatory Disorders With Triazole Compounds” (priority 2006, published 2009)
Values joined by “and” are separate entries in the source; they are usually repeats but may differ in a detail not shown here. Equal values may be shown once.

Legend:
Assay type in all cases: in vivo, human
[1] = test system: skin of volunteers, UVB; assay: Effects of topical 0.35% rambazole on UVB-induced inflammation (chromametry); conditions: topical 0.35% for 9 days, then 5 days UVB
Description: In an investigator-blinded, placebo-controlled study, topical 0.35% rambazole was applied to the skin of volunteers for 9 days, followed by 5 days of induction of inflammation with UVB. Adapalene was used in the study as a standard anti-inflammatory agent.

[2] = test system: mild to moderate acne vulgaris; assay: Treatment of acne vulgaris with topical rambazole; conditions: after 12 weeks; daily topical 0.35% rambazole
[3] = test system: Interleukin-1 (IL-1); assay: Expression of IL-1 in the skin of healthy volunteers (real-time PCR)
Experimental: In this randomized, double-blind, left-right, placebo-controlled trial, the expression of Interleukin-1 (IL-1) in the skin of 15 healthy subjects was evaluated after a once daily application of rambazole gel at two different concentrations (0.35% or 0.07%) on intact skin for 9 days. The IL-1 biomarker was analyzed with real-time PCR.

[4] = test system: moderate to severe facial acne vulgaris; assay: Treatment of acne vulgaris with oral rambazole (lesion counts); conditions: for Table 3 (untitled, lesion count), Max. / Table 3 (untitled, lesion count), Mean / Table 3 (untitled, lesion count), Median / Table 3 (untitled, lesion count), Min. / Table 6 (untitled, summary of Table 5 lesion count), Max. / Table 6 (untitled, summary of Table 5 lesion count), Mean / Table 6 (untitled, summary of Table 5 lesion count), Median / Table 6 (untitled, summary of Table 5 lesion count), Min. / Table 4 (untitled, change of Table 3 count versus Visit 2), Max. / Table 4 (untitled, change of Table 3 count versus Visit 2), Mean / Table 4 (untitled, change of Table 3 count versus Visit 2), Median / Table 4 (untitled, change of Table 3 count versus Visit 2), Min. / Table 7 (untitled, change of Table 6 count versus Visit 2), Max. / Table 7 (untitled, change of Table 6 count versus Visit 2), Mean / Table 7 (untitled, change of Table 6 count versus Visit 2), Median / Table 7 (untitled, change of Table 6 count versus Visit 2), Min.: N 16; for Table 5 (untitled, lesion count per subject): individual subjects
Experimental: Sixteen patients with moderate to severe facial acne vulgaris received a daily oral dose of 1 mg of rambazole for 12 weeks. […] The average lesion reduction was 79%. See Tables 3 through 7 for additional individual data. See FIGS. 5 and 6, respectively, for a comparison of the response to treatment of inflammatory lesions versus non-inflammatory lesions.

skin reaction reported by one subject ([3]; 0.35% rambazole, during one day after 8 days of treatment): mild itching
Compound: CCC(CC)C(c1ccc(Nc2nc3ccccc3s2)cc1)n1cncn1 (stereo not shown) [rambazole]
phototoxicity (chromametry) [1]: no indication of phototoxicity
reduction in global assessment score [2]: approximately 40%
local skin reactions during 9 days of treatment ([3]; gel 0.35% or 0.07% once daily): no itching, irritating, stinging, burning or vesiculation occurred
IL-1 expression in skin ([3]; gel 0.35% or 0.07% once daily on intact skin for 9 days, healthy subjects): dose-dependently decrease
serious adverse effects ([4]; 1 mg oral daily for 12 weeks): No serious adverse effects were reported
Table 3 (untitled, lesion count), Max. ([4]; Visit No. 2): 170
Table 3 (untitled, lesion count), Mean ([4]; Visit No. 2): 56.2
Table 3 (untitled, lesion count), Median ([4]; Visit No. 2): 48.0
Table 3 (untitled, lesion count), Min. ([4]; Visit No. 2): 15
Table 6 (untitled, summary of Table 5 lesion count), Max. ([4]; Visit No. 2): 199
Table 6 (untitled, summary of Table 5 lesion count), Mean ([4]; Visit No. 2): 81.3
Table 6 (untitled, summary of Table 5 lesion count), Median ([4]; Visit No. 2): 87.0
Table 6 (untitled, summary of Table 5 lesion count), Min. ([4]; Visit No. 2): 22
Table 5 (untitled, lesion count per subject) ([4]; Visit No. 2): 22 and 46 and 63 and 25 and 23 and 93 (2×) and 72 and 49 and 89 and 110 and 199 and 121 and 95 and 115 and 85
Table 3 (untitled, lesion count), Max. ([4]; Visit No. 4): 77
Table 3 (untitled, lesion count), Mean ([4]; Visit No. 4): 34.4
Table 3 (untitled, lesion count), Median ([4]; Visit No. 4): 34.5
Table 3 (untitled, lesion count), Min. ([4]; Visit No. 4): 3
Table 4 (untitled, change of Table 3 count versus Visit 2), Max. ([4]; Visit No. 4): 15
Table 4 (untitled, change of Table 3 count versus Visit 2), Mean ([4]; Visit No. 4): −21.8
Table 4 (untitled, change of Table 3 count versus Visit 2), Median ([4]; Visit No. 4): −10.0
Table 4 (untitled, change of Table 3 count versus Visit 2), Min. ([4]; Visit No. 4): −159
Table 6 (untitled, summary of Table 5 lesion count), Max. ([4]; Visit No. 4): 122
Table 6 (untitled, summary of Table 5 lesion count), Mean ([4]; Visit No. 4): 51.4
Table 6 (untitled, summary of Table 5 lesion count), Median ([4]; Visit No. 4): 49.5
Table 6 (untitled, summary of Table 5 lesion count), Min. ([4]; Visit No. 4): 3
Table 7 (untitled, change of Table 6 count versus Visit 2), Max. ([4]; Visit No. 4): 10
Table 7 (untitled, change of Table 6 count versus Visit 2), Mean ([4]; Visit No. 4): −29.9
Table 7 (untitled, change of Table 6 count versus Visit 2), Median ([4]; Visit No. 4): −17.5
Table 7 (untitled, change of Table 6 count versus Visit 2), Min. ([4]; Visit No. 4): −159
Table 5 (untitled, lesion count per subject) ([4]; Visit No. 4): 11 and 3 and 12 and 30 and 21 and 71 and 58 and 59 and 80 and 45 and 89 and 40 and 48 and 82 and 122 and 51
Table 3 (untitled, lesion count), Max. ([4]; Visit No. 5): 94
Table 3 (untitled, lesion count), Mean ([4]; Visit No. 5): 26.4
Table 3 (untitled, lesion count), Median ([4]; Visit No. 5): 27.0
Table 3 (untitled, lesion count), Min. ([4]; Visit No. 5): 1
Table 4 (untitled, change of Table 3 count versus Visit 2), Max. ([4]; Visit No. 5): 19
Table 4 (untitled, change of Table 3 count versus Visit 2), Mean ([4]; Visit No. 5): −29.8
Table 4 (untitled, change of Table 3 count versus Visit 2), Median ([4]; Visit No. 5): −22.0
Table 4 (untitled, change of Table 3 count versus Visit 2), Min. ([4]; Visit No. 5): −142
Table 6 (untitled, summary of Table 5 lesion count), Max. ([4]; Visit No. 5): 146
Table 6 (untitled, summary of Table 5 lesion count), Mean ([4]; Visit No. 5): 39.5
Table 6 (untitled, summary of Table 5 lesion count), Median ([4]; Visit No. 5): 40.5
Table 6 (untitled, summary of Table 5 lesion count), Min. ([4]; Visit No. 5): 1
Table 7 (untitled, change of Table 6 count versus Visit 2), Max. ([4]; Visit No. 5): 31
Table 7 (untitled, change of Table 6 count versus Visit 2), Mean ([4]; Visit No. 5): −41.8
Table 7 (untitled, change of Table 6 count versus Visit 2), Median ([4]; Visit No. 5): −45.0
Table 7 (untitled, change of Table 6 count versus Visit 2), Min. ([4]; Visit No. 5): −140
Table 5 (untitled, lesion count per subject) ([4]; Visit No. 5): 9 and 1 and 4 (2×) and 2 (2×) and 48 and 64 and 42 and 39 and 33 and 80 and 59 and 55 and 44 and 146
Table 3 (untitled, lesion count), Max. ([4]; Visit No. 6): 37
Table 3 (untitled, lesion count), Mean ([4]; Visit No. 6): 12.8
Table 3 (untitled, lesion count), Median ([4]; Visit No. 6): 13.5
